Read-outs that look alike come from different tables or passages of the source.

For assay [1], the target named is T1, Recombinant full-length RIPK1 protein with N-terminal GST-tag (hRIP1 kinase) (Homo sapiens, UniProt Q13546).
T1 construct: Recombinant full-length RIPK1 protein with N-terminal GST-tag; GST (N); purchased SignalChem R07-34G
T1 sequence (Q13546 1-671): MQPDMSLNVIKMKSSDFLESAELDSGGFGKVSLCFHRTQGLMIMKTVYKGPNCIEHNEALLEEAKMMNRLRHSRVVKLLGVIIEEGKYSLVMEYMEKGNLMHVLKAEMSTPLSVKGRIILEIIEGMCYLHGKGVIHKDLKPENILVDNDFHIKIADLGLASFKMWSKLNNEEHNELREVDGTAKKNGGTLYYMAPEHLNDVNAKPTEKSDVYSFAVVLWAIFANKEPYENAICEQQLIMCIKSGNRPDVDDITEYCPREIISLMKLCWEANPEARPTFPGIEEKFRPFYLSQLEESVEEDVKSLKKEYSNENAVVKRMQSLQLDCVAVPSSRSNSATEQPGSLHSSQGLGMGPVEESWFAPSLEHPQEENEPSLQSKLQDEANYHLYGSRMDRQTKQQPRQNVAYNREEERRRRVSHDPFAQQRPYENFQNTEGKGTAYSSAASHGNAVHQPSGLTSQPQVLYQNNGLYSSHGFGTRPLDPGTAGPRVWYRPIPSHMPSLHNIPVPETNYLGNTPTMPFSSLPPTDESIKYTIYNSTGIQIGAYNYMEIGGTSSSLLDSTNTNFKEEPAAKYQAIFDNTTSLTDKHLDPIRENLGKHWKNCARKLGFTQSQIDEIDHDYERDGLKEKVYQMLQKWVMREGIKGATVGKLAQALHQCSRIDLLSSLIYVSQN
The assay can be described thus: Kinase assay of RIPK1 (ADP-Glo). Type of assay: biochemical. As to conditions: for IC50: RIPK1 161 nM, ATP 50 uM, MBP 20 uM, 90 min. The procedure:
Recombinant full-length RIPK1 protein with N-terminal GST-tag (Cat # R07-34G) was purchased from SignalChem. The ADP-Glo™ kinase assay kit (Cat # V9102) was from Promega. MBP (cat # M2295) protein and all the other chemicals were from Sigma. The 384-well assay plates (Cat #3674, white, opaque) were purchased from Corning.
Kinase activity assay and data analysis: The RIPK1 kinase assay was performed in white 384-well plate. The assay buffer contained 25 mM HEPES (pH7.2), 20 mM MgCl2, 12.5 mM MnCl2, 5 mM EGTA, 2 mM EDTA, 12.5 mM β-glycerol phosphate and 2 mM DTT. RIPK1 was first incubated with compounds or DMSO control for 15 min, then ATP/MBP substrate mixture was added to initiate the reaction. The final concentration of RIPK1 was 161 nM, while the final concentration of ATP was 50 uM, and MBP 20 uM. After 90 min reaction at room temperature, the ADP-Glo reagent and detection solution were added following the technical manual of ADP-Glo™ kinase assay kit (Promega). The luminescence was measured on PerkinElmer Enspire. The data was analyzed using Graphpad Prism (GraphPad Software; www.graphpad.com). The curves were fitted using a non-linear regression model with a sigmoidal dose response.
In general terms: In ADP-Glo the light output rises with the ADP produced.

A further assay has as its system HT-29 cells. The assay can be described thus: Necrosis assay (TNF-α/Smac mimetic/z-VAD induced necrosis, cell viability by ATP level). In kind it is cell-based. The essentials: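 Necrosis induced by 20 ng/ml TNF-α, 100 nM Smac mimetic and […], with compound added concurrently for 24 h. Viability read as ATP luminescence (CellTiter-Glo), normalized to DMSO-treated cells; duplicates.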

[2] abbreviates: HT-29, TNF-α + Smac mimetic + z-VAD, 24 hrs, ATP level, values given as ranges in nM, read-out: EC50 (inhibition of necrosis in HT-29 cells).
The mark [3] stands for this setting: Homo sapiens, HT-29, cell necrosis assay, exemplary data table, read-out: Cell viability assay, EC50.
The mark [4] stands for this setting: Homo sapiens, HT-29, 24 h, HT-29, TNF-α + Smac mimetic + z-VAD, 24 hrs, ATP level, values given as ranges in uM, read-out: EC50 (inhibition of necrosis in HT-29 cells).

With `CCC(C)(C)C(=O)N(C)Cc1cccc(F)c1` [Compound 16, N-(3-fluorobenzyl)-N,2,2-trimethylbutanamide], in assay [1], the concentration for half-maximal inhibition (IC50) amounted to 0.052 µM. Further, the EC50 in the assay on HT-29 cells (setting [2]) lay within 1 to 1000 nM.

In the case of `CCC(C)(C)C(=O)N(O)Cc1cc(F)c(F)c(F)c1` [Compound 99, N-hydroxy-2,2-dimethyl-N-(3,4,5-trifluorobenzyl)butanamide], the IC50 in assay [1] amounted to 0.0296 µM. The EC50 is 1 to 1000 nM with HT-29 cells (setting [2]) and 45.7 nM in the assay on HT-29 cells (setting [3]).

Consider `CCC(C)(C)C(=O)N(O)Cc1ccccc1` [Compound 92, N-benzyl-N-hydroxy-2,2-dimethylbutanamide], for which the IC50 in assay [1] is 0.0132 µM. Further, the EC50 in the assay with HT-29 cells (setting [2]) is 1 to 1000 nM; in the assay with HT-29 cells (setting [3]), 28.4 nM.

Consider `CCC(C)(C)C(=O)N(C)Cc1cc(F)cc(F)c1F` [Compound 75, N,2,2-trimethyl-N-(2,3,5-trifluorobenzyl)butanamide], for which, in assay [1], the IC50 was determined as 0.033 µM. Also, in the assay on HT-29 cells (setting [2]), the EC50 was 1 to 1000 nM.

Take `CCC(C)(C)C(=O)N(C)Cc1ccccc1Cl` [Compound 14, N-(2-chlorobenzyl)-N,2,2-trimethylbutanamide]: in assay [1] (at 2uM compound), the inhibition at 2 µM stood at 66%. The values for the EC50 in the assay on HT-29 cells (setting [4]) and in the assay on HT-29 cells (setting [3]) were 1000 to 10000 nM and 3280 nM, respectively.

With `CCC(C)(C)C(=O)NCc1ccccc1Br` [Compound 3, N-(2-bromobenzyl)-2,2-dimethylbutanamide], the EC50 with HT-29 cells (setting [4]) lay in the range of 1000 to 10000 nM.

As for `CCC(C)(C)C(=O)N(Cc1ccccc1)OC` [Compound S4, N-benzyl-N-methoxy-2,2-dimethylbutanamide], in the assay with HT-29 cells (setting [2]), the EC50 was in the range of 1 to 1000 nM.

Consider `CCC(C)(C)C(=O)N(C)Cc1cnc2ccccc2c1` [Compound 47, N,2,2-trimethyl-N-(quinolin-3-ylmethyl)butanamide], for which the EC50 in the assay with HT-29 cells (setting [4]) is 1000 to 100000 nM.

Regarding `CCC(C)(C)C(=O)N(O)Cc1cc(F)c(F)cc1F` [Compound 98, N-hydroxy-2,2-dimethyl-N-(2,4,5-trifluorobenzyl)butanamide], the EC50 with HT-29 cells (setting [2]) is 1 to 1000 nM.

`CN(Cc1cc(F)c(F)c(F)c1)C(=O)C1CCCC1` [Compound 85, N-methyl-N-(3,4,5-trifluorobenzyl)cyclopentanecarboxamide]: the EC50 with HT-29 cells (setting [4]) fell in the range of 1000 to 100000 nM.

On to `CN(Cc1cc(F)cc(F)c1F)S(=O)(=O)C1CCCCC1` [Compound 79, N-methyl-N-(2,3,5-trifluorobenzyl)cyclohexanesulfonamide], for which the EC50 in the assay on HT-29 cells (setting [4]) lay within 1000 to 100000 nM.

Consider `CCC(C)(C)C(=O)N(C)Cc1ccccc1OC` [Compound 15, N-(2-methoxybenzyl)-N,2,2-trimethylbutanamide], for which the EC50 with HT-29 cells (setting [4]) lay within 1000 to 100000 nM.

Broadly, the IC50 is the concentration that inhibits the measured activity by half. In general, EC50 refers to the concentration needed to bring the measured effect to its halfway point. For orientation: inhibition means how much of the control response was suppressed.
